Patent publication US20250032623A1, “HETEROBIFUNCTIONAL COMPOUNDS AND THEIR USE IN TREATING DISEASE” (HALDA THERAPEUTICS OPCO, INC., priority 2021, published 2025)

Assays:
[1] = target: T1, KRAS G12C (Homo sapiens, UniProt P01116, G12C); assay: KRAS G12C nucleotide exchange assay (SOS1 mediated, HTRF); type: biochemical; conditions: 1 hr pre-incubation at RT, read-out: IC50 (inhibition of KRas G12C)
T1 construct: Kras (aa 2-169), GST; purchased Reaction Biology Corporation (RBC)
Method: Exemplary compounds were tested for ability to inhibit KRas G12C.
KRAS target engagement (IC50 determination) was performed using a KRAS G12C nucleotide exchange assay (Reaction Biology Corporation). Specifically, compounds were tested against KRAS G12C in 10-point concentration IC50 mode with 3-fold serial dilution at a starting concentration of 10 μM. ARS1620 was used as a control. Compounds were pre-incubated with protein for 1 hr at RT. Parameters for the assay were:
In the method, Kras was mixed with a-GST Tb antibody (1.5× solution) and […] was delivered to reaction wells. Compounds were delivered using acoustic dispenser (Echo, Labcyte). Kras/aGST-Tb Ab/compound mixture was incubated for 1 hour at room temperature. A 3× solution of SOS1 and GTP* was prepared in reaction buffer. A […] aliquot of SOS1/GTP* solution was added to reaction well to initiate the exchange reaction. No—SOS1 reaction or max compound concentration was used as blank. IC50 determination was performed using a Sigmoidal dose response (variable slope) equation.

[2] = target: T2, EGFR T790M, L858R (amino acids 669-1011 Accession Number NP_005219.2) (Homo sapiens, UniProt P00533, L858R/T790M); assay: KdELECT binding assay (Eurofins Discovery), EGFR T790M, L858R; conditions: read-out: EGFR DM Kd
T2 construct: purchased Eurofins Discovery; host or cells: mammalian cells (HEK-293)
In short: (§1)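 Competition binding: WT kinase as T7 phage fusion from E. coli, T790M/L858R produced in HEK-293 and DNA-tagged, incubated 1 h at room temperature with immobilized ligand beads and compound (11-point 3-fold series, 0.9% DMSO). Bead-bound kinase eluted and quantified by qPCR to derive Kd.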

[3] = target: T3, EGFR (Homo sapiens, UniProt P00533); assay: KdELECT binding assay, EGFR
T3 construct: purchased
In short: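 Competition binding: DNA- or T7 phage-tagged EGFR was incubated 1 h at room temperature with immobilized ligand beads and an 11-point 3-fold compound series (0.9% DMSO final). Bead-bound kinase was eluted and quantified by qPCR to derive Kd.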

[4] = tested on: HEK293 cells; assay: Cellular growth inhibition assay (CellTiter-Glo), HEK293 cells; type: cell-based; conditions: Homo sapiens, 72 h, three days compound treatment, CellTiter-Glo 2.0, read-out: CTG HEK293 GI50
In short: (§2)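 GI50 derived by four-parameter regression of luminescence (CellTiter-Glo 2.0) at Day 0 and Day 3, normalized to DMSO wells. Cells (HeLa, HEK293; 500/well, DMEM plus 10% FBS) were dosed with compound dilutions 24 h post-seeding and exposed for three days at 37 °C.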

[5] = target: T4, EGFR WT (amino acids 669-1011, Accession Number NP_005219.2) (Homo sapiens, UniProt P00533); assay: KdELECT binding assay (Eurofins Discovery), EGFR WT
T4 construct: purchased Eurofins Discovery; host or cells: bacteria (E. coli, BL21-derived, T7 phage)
In short: as §1

[6] = tested on: HeLa cells; assay: Cellular growth inhibition assay (CellTiter-Glo), HeLa cells; type: cell-based; conditions: Homo sapiens, 72 h, three days compound treatment, CellTiter-Glo 2.0, read-out: CTG HELA GI50
In short: as §2

T2 sequence (P00533 669-1011 T790M/L858R): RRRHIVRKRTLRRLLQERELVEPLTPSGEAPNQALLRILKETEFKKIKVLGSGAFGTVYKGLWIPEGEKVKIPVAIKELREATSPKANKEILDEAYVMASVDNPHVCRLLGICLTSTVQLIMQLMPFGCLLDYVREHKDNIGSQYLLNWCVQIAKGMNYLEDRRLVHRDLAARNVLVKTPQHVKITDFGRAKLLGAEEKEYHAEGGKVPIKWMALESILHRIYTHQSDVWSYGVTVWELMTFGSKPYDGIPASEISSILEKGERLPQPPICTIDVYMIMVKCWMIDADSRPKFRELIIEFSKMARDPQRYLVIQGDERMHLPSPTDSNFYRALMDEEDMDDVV
T4 sequence (P00533 669-1011): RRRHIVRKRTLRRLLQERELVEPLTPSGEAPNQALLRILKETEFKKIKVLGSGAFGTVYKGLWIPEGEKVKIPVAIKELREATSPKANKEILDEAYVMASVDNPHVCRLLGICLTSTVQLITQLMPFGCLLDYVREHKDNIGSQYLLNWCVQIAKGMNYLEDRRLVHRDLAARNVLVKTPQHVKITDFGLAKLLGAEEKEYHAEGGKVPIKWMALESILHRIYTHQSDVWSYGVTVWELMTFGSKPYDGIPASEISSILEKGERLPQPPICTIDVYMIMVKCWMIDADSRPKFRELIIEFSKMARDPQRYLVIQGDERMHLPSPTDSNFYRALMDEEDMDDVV
T3 sequence (P00533 25-1210): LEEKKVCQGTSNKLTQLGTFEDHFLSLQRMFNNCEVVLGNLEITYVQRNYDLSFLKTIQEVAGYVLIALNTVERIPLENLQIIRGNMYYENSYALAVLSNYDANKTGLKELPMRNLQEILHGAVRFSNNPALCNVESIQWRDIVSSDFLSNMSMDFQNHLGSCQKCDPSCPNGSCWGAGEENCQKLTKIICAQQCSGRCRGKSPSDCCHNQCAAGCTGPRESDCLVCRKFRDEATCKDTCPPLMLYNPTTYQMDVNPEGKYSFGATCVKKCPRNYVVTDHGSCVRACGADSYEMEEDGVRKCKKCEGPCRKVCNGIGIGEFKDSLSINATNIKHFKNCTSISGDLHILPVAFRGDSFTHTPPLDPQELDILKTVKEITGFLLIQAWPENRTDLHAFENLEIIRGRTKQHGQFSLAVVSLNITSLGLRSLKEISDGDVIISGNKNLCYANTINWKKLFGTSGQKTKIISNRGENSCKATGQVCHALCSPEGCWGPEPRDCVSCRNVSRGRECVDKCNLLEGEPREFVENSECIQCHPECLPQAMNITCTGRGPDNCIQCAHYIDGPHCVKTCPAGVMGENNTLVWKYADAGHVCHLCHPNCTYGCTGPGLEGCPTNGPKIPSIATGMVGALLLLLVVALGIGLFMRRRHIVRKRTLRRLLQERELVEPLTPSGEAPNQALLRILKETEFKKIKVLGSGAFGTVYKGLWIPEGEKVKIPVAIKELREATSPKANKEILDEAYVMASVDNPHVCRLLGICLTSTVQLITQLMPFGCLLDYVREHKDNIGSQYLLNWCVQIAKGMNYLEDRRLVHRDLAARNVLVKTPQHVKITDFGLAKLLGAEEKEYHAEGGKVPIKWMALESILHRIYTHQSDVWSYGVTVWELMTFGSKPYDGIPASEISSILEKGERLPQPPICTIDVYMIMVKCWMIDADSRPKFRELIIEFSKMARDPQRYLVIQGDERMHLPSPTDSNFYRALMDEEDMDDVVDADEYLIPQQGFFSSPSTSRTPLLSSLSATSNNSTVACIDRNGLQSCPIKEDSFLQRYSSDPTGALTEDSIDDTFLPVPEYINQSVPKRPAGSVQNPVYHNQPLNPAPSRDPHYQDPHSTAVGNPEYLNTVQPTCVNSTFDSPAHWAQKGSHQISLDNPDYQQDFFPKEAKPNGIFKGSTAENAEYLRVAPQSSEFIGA
T1 sequence (P01116 2-169 isoform P01116-2 G12C): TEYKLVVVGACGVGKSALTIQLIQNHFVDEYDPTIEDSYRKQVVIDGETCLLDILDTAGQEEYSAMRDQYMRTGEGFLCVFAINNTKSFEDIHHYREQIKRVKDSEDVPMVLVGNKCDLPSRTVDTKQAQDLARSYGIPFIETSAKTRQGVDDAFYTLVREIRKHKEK

SMILES | IC50 [1] [nM] | Kd [2] [nM] | Kd [3] [nM] | GI50 [4] [nM] | Kd [5] [nM] | GI50 [6] [nM]
Cc1ccnc(C(C)C)c1-n1c(=O)nc(N2CCN(C(=O)/C=C/CN(C)CCOCCOCCOCCOCCOCCOCCON(C)C(=O)N3N=C(c4cc(F)ccc4F)SC3(CCCN)c3ccccc3)C[C@@H]2C)c2cc(F)c(-c3c(O)cccc3F)nc21 (stereo partly shown) [Compound I-77] | 1000 to 5000 |  |  |  |  | 
C=CC(=O)N[C@@H]1CN(c2nc(Nc3cn(CCOCCOCCOCCOCCNC(=O)c4ccc(Nc5ncc6c(n5)N(C5CCCC5)[C@H](CC)C(=O)N6C)c(OC)c4)nc3OC)c3ncn(C)c3n2)C[C@H]1F [Compound I-125] |  | < 50 | 50 to 500 | 1500 to 5000 | 50 to 500 | > 5000
C=CC(=O)N[C@@H]1CN(c2nc(Nc3cn(CCCN4CCN(CCCON(C)C(=O)N5N=C(c6cc(F)ccc6F)S[C@@]5(CCCN)c5ccccc5)CC4)nc3OC)c3ncn(C)c3n2)C[C@H]1F [Compound I-137, (2S)-2-(3-aminopropyl)-5-(2,5-difluorophenyl) —N-[3-[4-[3-[4-[[2-[(3R,4R)-3-fluoro-4-(prop-2-enoylamino)pyrrolidin-1-yl]-9-methyl-purin-6-yl]amino]-3-methoxy-pyrazol-1-yl]propyl]piperazin-1-yl]propoxy]-N-methyl-2-phenyl-1,3,4-thiadiazole-3-carboxamide] |  | < 50 | < 50 | > 5000 | < 50 | 1500 to 5000
C=CC(=O)N[C@@H]1CN(c2nc(Nc3cn(CCCNC(=O)c4ccc(Nc5ncc6c(n5)N(C5CCCC5)[C@H](CC)C(=O)N6C)c(OC)c4)nc3OC)c3ncn(C)c3n2)C[C@H]1F [Compound I-131, 4-[(8-cyclopentyl-7-ethyl-5-methyl-6-oxo-7H-pteridin-2-yl)amino]-N-[3-[4-[[2-[(3R,4R)-3-fluoro-4-(prop-2-enoylamino)pyrrolidin-1-yl]-9-methyl-purin-6-yl]amino]-3-methoxy-pyrazol-1-yl]propyl]-3-methoxy-benzamide] |  | < 50 | 500 to 2500 | 500 to 1500 | 500 to 2500 | 500 to 1500
C=CC(=O)N[C@@H]1CN(c2nc(Nc3cn(CCOCCON(C)C(=O)N4N=C(c5cc(F)ccc5F)S[C@@]4(CCCN)c4ccccc4)nc3OC)c3ncn(C)c3n2)C[C@H]1F [Compound I-134, (2S)-2-(3-aminopropyl)-5-(2,5-difluorophenyl)-N—[2-[2-[4-[[2-[(3R,4R)-3-fluoro-4-(prop-2-enoylamino)pyrrolidin-1-yl]-9-methyl-purin-6-yl]amino]-3-methoxy-pyrazol-1-yl]ethoxy]ethoxy]-N-methyl-2-phenyl-1,3,4-thiadiazole-3-carboxamide] |  | < 50 | < 50 | > 5000 | < 50 | 1500 to 5000
C=CC(=O)Nc1cc(Nc2nccc(-c3cn(C)c4ccccc34)n2)c(OC)cc1N(C)CCN(C)CCOCCOCCOCCOCCON(C)C(=O)N1N=C(c2cc(F)ccc2F)SC1(CCCN)c1ccccc1 (stereo not shown) [Compound I-67] |  | < 50 | < 50 | 500 to 1500 | 50 to 500 | 500 to 1500
CC[C@@H]1C(=O)N(C)c2cnc(Nc3ccc(C(=O)NCCCN4CCN(CCCN(C)C/C=C/C(=O)N[C@@H]5CN(c6nc(Nc7cn(C)nc7OC)c7ncn(C)c7n6)C[C@H]5F)CC4)cc3OC)nc2N1C1CCCC1 [Compound I-152, 4-[[(7R)-8-cyclopentyl-7-ethyl-5-methyl-6-oxo-7H-pteridin-2-yl]amino]-N-[3-[4-[3-[[(E)-4-[[(3R,4R)-4-fluoro-1-1[6-1[(3-methoxy-1-methyl-pyrazol-4-yl)amino]-9-methyl-purin-2-yl]pyrrolidin-3-yl]amino]-4-oxo-but-2-enyl]-methyl-amino]propyl]piperazin-1-yl]propyl]-3-methoxy-benzamide] |  | < 50 | 500 to 2500 | > 5000 | 500 to 2500 | < 500
C=CC(=O)N[C@@H]1CN(c2nc(Nc3cn(CCOCCOCCNC(=O)c4ccc(Nc5ncc6c(n5)N(C5CCCC5)[C@H](CC)C(=O)N6C)c(OC)c4)nc3OC)c3ncn(C)c3n2)C[C@H]1F [Compound I-128, 4-[[(7R)-8-cyclopentyl-7-ethyl-5-methyl-6-oxo-7H-pteridin-2-yl]amino]-N-[2[22-[2-[4-[[2-[(3R,4R)-3-fluoro-4-(prop-2-enoylamino)pyrrolidin-1-yl]-9-methyl-purin-6-yl]amino]-3-methoxy-pyrazol-1-yl]ethoxy]ethoxy]ethyl]-3-methoxy-benzamide] |  | < 50 | 50 to 500 | 500 to 1500 | 50 to 500 | 500 to 1500
C=CC(=O)Nc1cc(Nc2nccc(-c3cn(C)c4ccccc34)n2)c(OC)cc1N(C)CCN(C)CCOCCOCCOCCOCCOCCOCCOCCOCCON(C)C(=O)N1N=C(c2cc(F)ccc2F)SC1(CCCN)c1ccccc1 (stereo not shown) [Compound I-69] |  | < 50 | < 50 | 500 to 1500 | 500 to 2500 | < 500
C=CC(=O)Nc1cc(Nc2nccc(-c3cn(C)c4ccccc34)n2)c(OC)cc1N(C)CCN(C)CCCN1CCN(CCCOc2ccc(CNc3cc(N4CCCC[C@H]4CCO)nc4c(CC)cnn34)cn2)CC1 [Compound I-149, N-[2-[2-[3-[4-[3-[[5-[[[3-ethyl-5-[(2S)-2-(2-hydroxyethyl)-1-piperidyl]pyrazolo[1,5-a]pyrimidin-7-yl]amino]methyl]-2-pyridyl]oxy]propyl]piperazin-1-yl]propyl-methyl-amino]ethyl-methyl-amino]-4-methoxy-5-[[4-(1-methylindol-3-yl)pyrimidin-2-yl]amino]phenyl]prop-2-enamide] |  | < 50 | 500 to 2500 | < 500 | 500 to 2500 | < 500
CC[C@@H]1C(=O)N(C)c2cnc(Nc3ccc(C(=O)NCCOCCOCCOCCOCCN(C)C/C=C/C(=O)N[C@@H]4CN(c5nc(Nc6cn(C)nc6OC)c6ncn(C)c6n5)C[C@H]4F)cc3OC)nc2N1C1CCCC1 [Compound I-129, 4-[[(7R)-8-cyclopentyl-7-ethyl-5-methyl-6-oxo-7H-pteridin-2-yl]amino]-N-[2-[2-[2-[2-[2-[[(E)-4-[[(3R,4R)-4-fluoro-1-[6-[(3-methoxy-1-methyl-pyrazol-4-yl)amino]-9-methyl-purin-2-yl]pyrrolidin-3-yl]amino]-4-oxo-but-2-enyl]-methyl-amino]ethoxy]ethoxy]ethoxy]ethoxy]ethyl]-3-methoxy-benzamide] |  | 50 to 500 | 500 to 2500 | 500 to 1500 | 500 to 2500 | 500 to 1500
C=CC(=O)N[C@@H]1CN(c2nc(Nc3cn(CCOc4ccc(CNc5cc(N6CCCC[C@H]6CCO)nc6c(CC)cnn56)cn4)nc3OC)c3ncn(C)c3n2)C[C@H]1F [Compound I-139, N-[(3R,4R)-1-[6-[[1-[2-[[5-1[[[3-ethyl-5-[(2S)-2-(2-hydroxyethyl)-1-piperidyl]pyrazolo[1,5-a]pyrimidin-7-yl]amino]methyl]-2-pyridyl]oxy]ethyl]-3-methoxy-pyrazol-4-yl]amino]-9-methyl-purin-2-yl]-4-fluoro-pyrrolidin-3-yl]prop-2-enamide] |  | < 50 | 50 to 500 | < 500 | 50 to 500 | < 500
CC[C@@H]1C(=O)N(C)c2cnc(Nc3ccc(C(=O)NCCOCCOCCOCCOCCN(C)C/C=C/C(=O)Nc4cc(Nc5nccc(-c6cn(C)c7ccccc67)n5)c(OC)cc4N(C)CCN(C)C)cc3OC)nc2N1C1CCCC1 [Compound I-123, 4-[[(7R)-8-cyclopentyl-7-ethyl-5-methyl-6-oxo-7H-pteridin-2-yl]amino]-N-[2-[2-1[2-[2-[2-[[(E)-4-[2-1[2-(dimethylamino)ethyl-methyl-amino]-4-methoxy-5-[1[4-(1-methylindol-3-yl)pyrimidin-2-yl]amino]anilino]-4-oxo-but-2-enyl]-methyl-amino]ethoxy]ethoxy]ethoxy]ethoxy]ethyl]-3-methoxy-benzamide] |  | < 50 | > 2500 | 500 to 1500 | > 2500 | 500 to 1500
